# Like-named read-outs stand apart in the source and are kept apart here.
# Key:
# in vivo [1] = details: rabbit
# adenylate cyclase = details: Hynie et al 1986; cited from earlier work
# rat = details: in vivo
# in vivo [2] = details: mouse
# mice [3] = experiment: castor oil-provoked diarrhea in mice; format: in vivo; details: 20 mg/kg, 30 minutes before castor oil; control 91.2±4.4 minutes
# [4] = retention of stomach content; format: in vivo; details: active substance 10-20 mg/kg; atropin dose not stated
# in vivo [5] = details: rat
# dogs (beagle) = experiment: chronic six months toxicity study on dogs; format: in vivo
# in vivo [6] = details: guinea pig
# [7] = V. Nosalova et al 1986; cited from earlier work
# calves = experiment: reduction of diarrhea occurrence in new-born calves; format: in vivo
# Method: With the referenoe individuals (n=66) diarrhea has occurred with about 80% thereof. The medicament of the invention, if administered for 2 to 3 days in a 10 mg daily dose, reduced the diarrhea ocourrence by 40-50%, and with a 20 mg d aily dose during 3 days of administration even less than 4% (P<0.01). In the control group of calves to which no medicament was administered, a multiple mortality has been observed.
# [8] = cited from earlier work
# [9] = tested on: intestinal passage of carbo adsorbens; experiment: intestinal passage of carbo adsorbens, mice; format: in vivo; details: for intestinal passage of carbo adsorbens, complete intestine: atropin 5 mg/kg, reference 75.0 ± 1.9
# Method: (§1) The active substance in 20 mg dose per one kg, if administered 30 minutes before administering castor oil, has extended the latent period up to the beginning of the diarrhea from 91.2±4.4 minutes to 127.3±6.3 minutes. […] (Table 1).
# (§2) TABLE 1 - Influence of pharmaceutical substances on the intestinal passage of carbo adsorbens (100% is the complete intestine length): […]
# mice [10] = details: mouse, in vivo
# mice [11] = details: mouse, in vivo; remark: listed apart in the source
# rats = experiment: one month toxicity study of rats; format: in vivo
# mice [12] = experiment: teratological and embryotoxic experiments on mice
# Salmonella typhimurium = experiment: mutation tests and reparative tests, Salmonella typhimurium
# [13] = tested on: intestinal passage of carbo adsorbens; experiment: intestinal passage of carbo adsorbens, rats; format: in vivo; details: for intestinal passage of carbo adsorbens, small intestines: 100% is the complete intestine length, substance 20 mg/kg, atropin 5 mg/kg, reference 58.7 ± 2.5
# Method: as §1, §2
# [14] = 100% is the complete intestine length, substance 20 mg/kg
structure (smiles),measurement,setting,value
"CCCCCOc1cccc(NC(=O)O[C@@H]2CCCC[C@H]2N2CCCC2)c1 (relative stereo) [substance of the formula, (±)-trans-2(1-pyrrolidinyl) cyclohexylester of 3-(n)-pentyloxycarbanilic acid]",LD50,in vivo [1]; ip,46.5 mg/kg
same,LD50,in vivo [1]; iv,2.92 mg/kg
same,reduction of adenylate cyclase activity,adenylate cyclase,a significant reduction of adenylate cyclase activity
same,LD50,rat; ip,75 mg/kg
same,LD50,rat; iv,13.8 mg/kg
same,LD50,rat; po,1030 mg/kg
same,LD50,rat; sc,283 mg/kg
same,mutation changes in reparative tests,Escherichia coli,have not been observed
same,qualitative or quantitative mutations,Escherichia coli,have not been observed
same,LD50,in vivo [2]; ip,56 mg/kg
same,LD50,in vivo [2]; iv,10.3 mg/kg
same,LD50,in vivo [2]; po,790 mg/kg
same,LD50,in vivo [2]; sc,122 mg/kg
same,latent period up to the beginning of the diarrhea,mice [3],127.3 ± 6.3 min
same,retention of stomach content,[4],unchanged
same,LD50,in vivo [5]; ip,70 mg/kg
same,LD50,in vivo [5]; iv,11.8 mg/kg
same,LD50,in vivo [5]; po,1110 mg/kg
same,LD50,in vivo [5]; sc,295 mg/kg
same,changes in weight of dogs,"dogs (beagle); both sexes, six months, p.o. 2, 10, 30 mg/kg",has not exhibited with doses of 2; 10; 30 mg/kg any extensive changes in the weight of dogs
same,harmfulness of the substance in the six months period,"dogs (beagle); p.o., dose range up to 2 mg/kg",no proofs about any harmfulness of the substance
same,"toxicity at the high doses (weight, behavior, mortality)","dogs (beagle); six months, p.o., two highest doses","a decrease in weight, defective behavior and mortality have occurred"
same,"toxic effect in hematological, biochemical and morphological indices","dogs (beagle); six months, p.o., two lower doses","No toxic effect in hematological, biochemical and morphological indices has been observed with the two lower doses"
same,heart activity and psychomotoric changes,"dogs (beagle); six months, p.o., two lower doses (exception)","minor changes in the heart activity, and particularly by influencing the pulse conductivity and further by psychomotoric unrest"
same,LD50,in vivo [6]; iv,7.8 mg/kg
same,LD50,in vivo [6]; sc,73.2 mg/kg
same,antiulcerose / gastric cytoprotective effect,[7],antiulcerose effects with a marked gastric cytoprotective effect
same,mortality of untreated control calves compared with treated calves (in words),"calves; bovine, in vivo",a statistically considerably higher number perish
same,reduction of diarrhea occurrence,"calves; calves, average 40 kg, 10 mg daily dose, 2 to 3 days, reference about 80% (n=66)",40-50%
same,diarrhea occurrence (printed as: reduced ... even less than 4%),"calves; calves, average 40 kg, 20 mg daily dose, 3 days, P<0.01, reference about 80% (n=66)",less than 4%
same,reduction of diarrhea (in words),"calves; calves, 10 and 20 mg per diem, one to three days after birth",significant reduction of diarrhea with involved animals depending upon the dose applied
same,locally anaesthetic effect,[8]; L. Benes et al 1969,exhibits the well-known locally anaesthetic effects
same,locally anaesthetic and spasmolytic effects,[8]; P. Svec et al 1976,locally anaesthetic and spasmolytic effects
same,locally anaesthetic activity at decreased pH,"[8]; media with decreased pH value at the acid side, S. Stole et al 1978",maintenance of its locally anaesthetic activity even in media with decreased pH value at the acid side
same,influence on passage of intestine content (in words),[9],does not significantly influence the passage of intestine content
same,"intestinal passage of carbo adsorbens, complete intestine",[9]; [14],80.3 ± 1.2%
same,"intestinal passage of carbo adsorbens, small intestine","[9]; 100% is the complete intestine length, substance 20 mg/kg, reference 91.7 ± 2.2",96.6 ± 0.95%
same,LD50,mice [10]; ip,59 mg/kg
same,LD50,mice [10]; po,840 mg/kg
same,LD50,mice [10]; sc,128 mg/kg
same,occurrence of skeletal abnormalities,mice [11],the same as in the reference group
same,"hematological, biochemical and morphological indices or animal weight","rats; p.o. 0.1, 1, 10 mg/kg","neither hematological, biochemical and morphological indices or the animal weight have not been considerably influenced"
same,influence on behavior,"rats; p.o. 0.1, 1, 10 mg/kg",has not shown any influence on the behavior of animals
same,increase in weight,"rats; p.o., two highest doses",in some cases lower than average
same,"fetal weight, implantates, placenta and amniotic liquor","mice [12]; 0.21, 2.1, 8.4, 21, 42, 84 mg/kg","no changes in the amounts of fetal weight implantates, placenta and amniotio liquor were found"
same,fetuses with palate fissure,mice [12]; only at highest dose of 84 mg/kg,less than 10%
same,mutation changes in reparative tests,Salmonella typhimurium,have not been observed
same,qualitative or quantitative mutations,Salmonella typhimurium,have not been observed
same,influence on passage of intestine content (in words),[13],does not significantly influence the passage of intestine content
same,"intestinal passage of carbo adsorbens, small intestines",[13],60.1 ± 1.5%
"CN1C2CCC1CC(OC(=O)C(CO)c1ccccc1)C2 (stereo not shown) [atropin, reference compound]","intestinal passage of carbo adsorbens, complete intestine",[9]; [14],51.4 ± 2.6%
same,"intestinal passage of carbo adsorbens, small intestines",[13],46.3 ± 2.5%

# Reference: US4975450A, “Antidiarrheal” (Slovenska Akademia Vied, priority 1987, dated 1990)
